Literature values in US6803057B2, “Hydrogen peroxide disinfectant with increased activity” (Virox Technologies Inc., priority 1998, dated 2004).
Where two headings read alike, the source gives them in different places.

Legend:
[1] = test system: Salmonella typhimurium and Listeria monocytogenes
[2] = test system: staphylococcus aureus

Structure (SMILES) | concentration effective in sanitizing [1] [ppm] | time required to disinfect surfaces contaminated with staphylococcus aureus ([2]; 0.1 wt./wt. % aqueous solution) [min] | time required to disinfect surfaces contaminated with staphylococcus aureus ([2]; 25.8 wt./wt. % aqueous solution) [min] | corrosivity / irritancy (1-3 wt./wt. % aqueous solution) | corrosivity / irritancy (3-7 wt./wt. % aqueous solution) | corrosivity / irritancy (above about 8 wt./wt. % aqueous solution)
CCCCCCCCCCCCc1ccc(S(=O)(=O)O)cc1 [DDBSA, dodecyl benzene sulfonic acid] | ≥ 200 | – | – | – | – | –
OO [hydrogen peroxide] | – | 60 | 0.333 | non-corrosive and non-irritating | non-corrosive but an eye irritant | corrosive
